Experimental data taken from patent US7348315B2, “Methods of treating heart failure with modified ATP, ADP and AMP compounds” (priority 1995, dated 2008).

Key:
[1] = test system: cardiac ventricular myocytes; assay: Contractile amplitude of cultured cardiac ventricular myocytes (optico-video motion detection); assay type: cell-based, chick
Source text: […] Sen, L., Liang, B. T., Colucci, W. S., Smith, T. W., Circ. Res. 67:1182-1192 (1990), modified to include the use of a high-speed peristaltic pump (Masterflex from Cole-Palmer/Spectrum), choice of lots of collagenase, hyaluronidase and protease that give the highest proportion of rod-shaped myocytes, inclusion of bovine serum albumin containing various enzymes, and pre-plating with laminin-coated plates or glass coverslips (for contractility measurement) to eliminate damaged, rounded up myocytes. Specifically, hearts from Sprague-Dawley rats were perfused in a retrograde manner for 5 minutes in Krebs-Henseleit (KH) bicarbonate buffer containing 118 mM NaCl, 4.6 mM KCl, 1.2 mM MgSO4, 1.25 mM CaCl2, 1.2 mM KH2PO4, 25 mM NaHCO3, and 11 mM glucose, gassed with 95% O2/5% CO2/at pH 7.4 (37° C., and an osmolality of 287 mosm/liter). The perfusion buffer was changed to nominally Ca^2+-free KH buffer for 5 min to arrest spontaneous beating. The heart was then perfused with the Ca^2+-free KH buffer containing 0.05% collagenase (Worthington) and 0.03% hyaluronidase (Sigma Chem. Co., St. Louis, Mo.) for 20 min. After removing the atria and the great vessels, the ventricular tissue was finely minced in the same collagenase/hyaluronidase buffer described above except that trypsin (0.02 mg/ml, Sigma) and deoxyribonuclease (0.02 mg/ml, Sigma) was also added. The minced tissue was further incubated in this buffer at 37° C. with shaking to facilitate dissociation of individual ventricular myocytes. The dissociated cells containing some damaged cells were filtered and layered twice over a 6% bovine serum albumin gradient. The rod-shaped healthy heart cells sedimented more easily than the round damaged cells. After the second sedimentation through the 6% BSA gradient, the final pellet contains more than 90% rod-shaped heart cells.
Ventricular myocytes were cultured from chick embryos 14 days in ovo according to known procedures. Briefly, isolated ventricular myocytes from chick embryos 14 in ovo were prepared in calcium- and magnesium-free Hanks' balanced salt sodium (HBSS) containing 0.025% trypsin (GIBCO, Grand Island, N.Y.). After neutralization of trypsin medium containing horse serum and HBSS, cells were centrifuged and resuspended in culture medium containing 6% fetal bovine serum, 40% Medium 199 (GIBCO), 0.1% penicillin/streptomycin, and a salt solution. The final concentrations in the culture medium (in mmol/L) were Na 142, K 3.3, Mg 0.7, Ca 1.4, Cl 130, HCO3 16.4, and glucose 5.5. Cells were plated at a density of 400,000 cell per ml and cultivated in a humidified 5% CO2-95% […]
The cell isolation procedure was generally that of Kelly, R. A., Eid, H., Kramer, B. K., O'Neill, M., Liang, B. T., Reers, M., Smith, T. W., J. Clin. Invest. 86:1164-1171 (1990), […] Cells became confluent on day 3 in culture and contractility measurement was carried out on that day.
Measurement of contractile amplitude in cultured ventricular cells was carried out generally according to the methods of Xu, D., Kong, H., Liang, B. T., Circ. Res. 70:56-65 (1992), and Barry, W. H., and Smith, T. W., J. Physiol. (Lond) 325:243-260 (1982). […]

[2] = test system: working rat heart; assay: Intact working rat heart; conditions: FIG. 11
Description: For the working heart model, a column of KHS buffer produced a constant hydrostatic pressure of 65 mmHg (for rat) or 55 mmHg (for mice). The opening of the pulmonary vein was connected via a PE-90 (for rat) or PE-50 (for mice) catheter to a reservoir of KHS buffer that maintained a “venous return” flow into the left atrium of about 12 mL/min (rat) or 5 mL/min (mice) under the resting condition. The venous return was maintained by a constant level of hydrostatic pressure (7-8 mm Hg) yielding a steady rate of venous return. The entering KHS buffer was then switched from retrograde to antegrade perfusion and produced a work-performing heart preparation. […] Aortic flow was the amount of perfusate exiting the aortic cannula measured in […]. […]
The pressure recordings were channeled from amplifiers which had been precalibrated by a transducer simulator/calibrator (Ken Scientific Corp., Litchfield, Conn.). […] Data were analyzed by computer software (WorkBench for Windows+, Kent Scientific Corp.) designed for an IBM-compatible computer (Dell). […] Data points under each basal condition and during infusion of each drug concentration were summarized as means±SE, and the statistical differences were analyzed by one-way ANOVA with post-test comparison and t test.

[3] = test system: isolated mouse heart; assay: Work-performing isolated mouse heart; conditions: 100 nM, vs basal; for increase in +dP/dt (cardiac muscle contractility) / increase in cardiac output (C.O.) / increase in −dP/dt (diastolic relaxation): P less than 0.05, paired t test
Description: perfusion in the isolated heart was carried out using the work-performing model described as follows: For the working heart model, a column of KHS buffer produced a constant hydrostatic pressure of 65 mmHg (for rat) or 55 mmHg (for mice). The opening of the pulmonary vein was connected via a PE-90 (for rat) or PE-50 (for mice) catheter to a reservoir of KHS buffer that maintained a “venous return” flow into the left atrium of about 12 mL/min (rat) or 5 mL/min (mice) under the resting condition. The venous return was maintained by a constant level of hydrostatic pressure (7-8 mm Hg) yielding a steady rate of venous return. The entering KHS buffer was then switched from retrograde to antegrade perfusion and produced a work-performing heart preparation. The perfusate exited the left ventricle through the aorta cannula, which was connected to the aortic column of KHS buffer with a hydrostatic pressure of 55 mmHg (for mice) or 65 mmHg (for rat). Aortic flow was the amount of perfusate exiting the aortic cannula measured in millimeters per minute. Coronary flow, in millimeters per minute, was collected via opening of the pulmonary artery. The sum of aortic flow and coronary flow was the cardiac output. A 23 gauge catheter was inserted into the left ventricle and its distal end is connected to a pressure transducer to record left ventricular pressures and ±dP/dt. The left ventricular developed pressure (LVDP) was the difference between LV systolic and diastolic pressure. A side port of the reservoir allowed direct infusion of beta-adrenergic agonist isoproterenol or P2X receptor agonist 2-[…] into the KHS buffer that entered the left ventricle via the left atrium, which then entered the coronary circulation following ejection of drug-containing perfusate into the aorta. The pressure recordings were channeled from amplifiers which had been precalibrated by a transducer simulator/calibrator (Ken Scientific Corp., Litchfield, Conn.). The signals were then digitized via a PCM-DAS 16S/330 interface board (Computer Boards, Inc. Mansfield, Mass.) which provided a high level of performance with analog input channels and digital channels. Data were analyzed by computer software (WorkBench for Windows+, Kent Scientific Corp.) designed for an IBM-compatible computer (Dell). […] Data acquisition, signal display (LV pressures, ±dP/dt, heart rate), and data analysis programs were run concurrently from the hard drive of the computer. Data points under each basal condition and during infusion of each drug concentration were summarized as means±SE, and the statistical differences were analyzed by one-way ANOVA with post-test comparison and […] and ISO (isoproterenol) were present at 100 nM. Basal represented the baseline values obtained before infusion with the agonists. Date were the means and standard errors of those obtained in 5 rats.

[4] = biological target: P2 purinergic receptor; assay: Intact myocyte binding with the P2-selective radioligand [35S]ADPβS; conditions: intact myocytes; radioligand range 0.5-200 nM; read-out: Kd of low-affinity [35S]ADPβS binding site
Description: Cardiac ventricular myocytes were prepared and incubated with progressively increasing concentrations of [^35S] ADPβS. The binding reaction is performed by the addition of a Dulbecco's Modified Eagle's Medium (which contains 1-glutamine and glucose but lacks phenol red, adenosine nucleotides, and sodium bicarbonate, buffered by HEPES, pH=7.4) containing [^35S]ADPβS (0.5 to 200 nM, for saturation isotherm study). Nonradioactive ADPβS is used to define the level of nonspecific binding. Additional purinergic agonists or antagonists are added depending on the experimental conditions. Following a 30-minute incubation at 37° C., cells are washed three times with 3 ml of ice-cold wash buffer (containing 120 mM NaCl, 5.4 mM KCl, 0.8 mM MgSO4, 1.8 mM CaCl2, 50 mM HEPES, and 1.0 mM NaH2PO4 adjusted to pH=7.4). One ml of 0.5 M NaOH is added to the monolayer culture to solubilize the cell protein and 0.5 ml of Tris buffer, pH=7.4 is added to neutralize NaOH prior to scintillation counting for ^35S.
To determine the Bmax and Kd of the specific [^35S]ADPβS binding, a computer-aided nonlinear regression analysis (LIGAND PROGRAM) is used. See, […] 1980, 107, 220-239. Both a one-site and a two-site model is applied to fit the data points.

Structure (SMILES)	ability to stimulate an increase in contractile amplitude ([1]; FIGS. 1a-1d)	desensitization of the positive inotropic response to ATP, ADPβS and UTP after pre-exposure ([1]; pre-exposure 100 μM, 60 minutes (2-methylthio ATP) or three hours (UTP))	maximal % increase in contractile amplitude ([1]; ventricular myocytes (chick embryo 14 days in ovo / adult rat), mean ± SE)	+dP/dt (index of muscle contractility) [2]	−dP/dt (index of diastolic relaxation) [2]	heart rate (H.R.) [3]	increase in +dP/dt (cardiac muscle contractility) [3]	increase in cardiac output (C.O.) [3]	increase in −dP/dt (diastolic relaxation) [3]	Kd [4]
CSc1nc(N)c2ncn([C@@H]3O[C@H](COP(=O)(O)OP(=O)(O)OP(=O)(O)O)[C@@H](O)[C@H]3O)c2n1 [2-methylthio ATP]	capable of stimulating an increase in contractile amplitude	desensitized the positive inotropic response	54±7%	increases	increases	did not change the heart rate	statistically significant	statistically significant	statistically significant	
Nc1ncnc2c1ncn2[C@@H]1O[C@H](COP(=O)(O)OP(O)(O)=S)[C@@H](O)[C@H]1O [[^35S] ADPβS, [^35S] 5′-O-2-thiodiphosphate]										40 nM
CC(C)NCC(O)c1ccc(O)c(O)c1 (centres unmarked) [isoproterenol]						significant stimulation	statistically significant	statistically significant	statistically significant	
